From the supplement of paper PMC10307832

Assays:
Assay in all cases: relative viability (nuclei count vs DMSO), 5 days (fraction); higher = more cells survive
Kobe2602 + Tozasertib = compound: C1=CC(=CC=C1NC(=S)NNC2=C(C=C(C=C2[N+](=O)[O-])C(F)(F)F)[N+](=O)[O-])F [Kobe2602] + Cc1cc(Nc2cc(N3CCN(C)CC3)nc(Sc3ccc(NC(=O)C4CC4)cc3)n2)n[nH]1 [Tozasertib] (partner 0.1 µM)
In short: (§1)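 A single step with final 0.05% Triton X-100, 1% formaldehyde and 1 ug/ml Hoechst fixed the cells and stained nuclei 5 days after treatment. Lung cancer cell lines in 1536-well plates had been treated by pin tool the day after seeding with one drug alone or a fixed anchor-drug dose plus five library-drug doses (not always all listed) in √10 steps, and nuclei were counted on 4× images. Relative viability is the ratio of nuclei in treated wells to nuclei in vehicle wells, taken as the median of duplicate plates.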

[1] = compound: COc1cc2nccc(Oc3ccc(NC(=O)C4(C(=O)Nc5ccc(F)cc5)CC4)cc3)c2cc1OC [Cabozantinib] + CCNC(=O)c1noc(-c2cc(C(C)C)c(O)cc2O)c1-c1ccc(CN2CCOCC2)cc1 [Luminespib] (partner 0.01 µM)
In short: as §1

[2] = compound: COc1cc2nccc(Oc3ccc(NC(=O)C4(C(=O)Nc5ccc(F)cc5)CC4)cc3)c2cc1OC [Cabozantinib] + Cc1cc(Nc2cc(N3CCN(C)CC3)nc(Sc3ccc(NC(=O)C4CC4)cc3)n2)n[nH]1 [Tozasertib] (partner 0.1 µM)
In short: as §1

Zosuquidar + AZD7762 = compound: O[C@@H](COc1cccc2ncccc12)CN1CCN([C@@H]2c3ccccc3[C@@H]3[C@H](c4ccccc42)C3(F)F)CC1 [Zosuquidar] + NC(=O)Nc1cc(-c2cccc(F)c2)sc1C(=O)N[C@H]1CCCNC1 [AZD7762] (partner 0.2 µM)
In short: as §1

Cell Line | relative viability (Kobe2602 + Tozasertib; first compound 0.2 µM) | relative viability (Kobe2602 + Tozasertib; first compound 0.6325 µM) | relative viability (Kobe2602 + Tozasertib; first compound 2 µM) | relative viability (Kobe2602 + Tozasertib; first compound 6.325 µM) | relative viability (Kobe2602 + Tozasertib; first compound 20 µM) | relative viability ([1]; first compound 0.02 µM) | relative viability ([1]; first compound 0.06325 µM) | relative viability ([1]; first compound 0.2 µM) | relative viability ([1]; first compound 0.6325 µM) | relative viability ([1]; first compound 2 µM) | relative viability ([2]; first compound 0.02 µM) | relative viability ([2]; first compound 0.06325 µM) | relative viability ([2]; first compound 0.2 µM) | relative viability ([2]; first compound 0.6325 µM) | relative viability ([2]; first compound 2 µM) | relative viability (Zosuquidar + AZD7762; first compound 0.01 µM) | relative viability (Zosuquidar + AZD7762; first compound 0.03162 µM) | relative viability (Zosuquidar + AZD7762; first compound 0.1 µM) | relative viability (Zosuquidar + AZD7762; first compound 0.3162 µM) | relative viability (Zosuquidar + AZD7762; first compound 1 µM)
LCLC-103H | 0.498 | 0.535 | 0.469 | 0.436 | 0.479 | 1.07 | 0.962 | 1.03 | 0.983 | 0.905 | 0.552 | 0.471 | 0.474 | 0.486 | 0.391 | 0.793 | 0.76 | 0.672 | 0.755 | 0.809
NCI-H647 | 0.213 | 0.315 | 0.181 | 0.192 | 0.347 | 0.155 | 0.138 | 0.264 | 0.251 | 0.368 | 0.483 | 0.195 | 0.421 | 0.334 | 0.203 | 0.417 | 0.392 | 0.322 | 0.681 | 0.516
LK-2 | 0.174 | 0.188 | 0.189 | 0.174 | 0.174 |  | 0.176 |  | 0.198 | 0.196 |  | 0.169 |  | 0.18 | 0.175 | 0.496 | 0.428 | 0.328 | 0.541 | 0.279
NCI-H1755 | 0.638 | 0.596 | 0.557 | 0.608 | 0.554 | 0.33 | 0.419 | 0.54 | 0.344 | 0.403 | 0.673 | 0.666 | 0.618 | 0.529 | 0.539 | 0.399 | 0.461 | 0.398 | 0.497 | 0.436
EPLC-272H | 0.224 | 0.305 | 0.291 | 0.302 | 0.409 | 0.418 | 0.282 | 0.14 | 0.476 | 0.256 | 0.357 | 0.338 | 0.204 | 0.295 | 0.352 | 0.233 | 0.154 | 0.29 | 0.32 | 0.222
